In series [1] the test system is rumen microorganisms (mixed microbial population of rumen contents). Nature of the series: Enhancement of intraruminal propionic acid production, batch culture fermentation of rumen contents. Type of series: cell-based, bovine (rumen-fistulated). As to conditions: for % Propionic Acid: 9 h, 39° C. A digest of the protocol: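 Bovine rumen contents mixed 1:1 with buffer supplying mineral, energy and nitrogen sources, then incubated with test compounds (concentrations in μg/ml) for 9 hours at 39° C. Volatile fatty acids measured by gas-liquid chromatography; net production = post- minus pre-incubation concentration, expressed as molar percentage propionic acid.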

The test system of series [2] is rumen contents (lactic acid accumulation). The experiment in a line: Inhibition of lactic acid accumulation, second batch culture fermentation of rumen contents with glucose. Type of series: cell-based, bovine (rumen fistulated). The settings on record: for activity at 1.25 µg/mL: 1.25 μg/ml; for activity at 0.31 µg/mL: .31 μg/ml; for Accumulation of Lactic Acid - % of Control: Table 4, 360 min. A digest of the protocol:
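Bovine rumen contents mixed 1:1 with buffer containing 150 mM glucose and fermented 6 h at 39 °C. Lactic acid was quantified enzymatically through lactate dehydrogenase-driven NAD reduction, read as absorbance at 340 nm; compound concentrations in μg/ml.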

Series [3] in a line: Acute oral toxicity (mortality, LD50) in mice. Type of series: in vivo, mouse (Swiss-Webster). As to conditions: mouse, in vivo, male Swiss-Webster mice, 21 days. The procedure: (§1) Five groups of male, Swiss-Webster mice (Simonsen), each mouse weighing about 25 grams, were dosed orally with 0.25 ml of a solution of laidlomycin butyrate in sesame oil. A control group of six mice received only sesame oil. The mice were observed daily for mortality for 21 days. From this information the LD50 as calculated to be more than 200 mg/kg.

The subject of series [4] is male, Swiss-Webster mice. The experiment in a line: Acute oral toxicity (mortality, LD50) in mice. Type of series: in vivo, mouse (Swiss-Webster). As to conditions: sesame oil, 21 days. The protocol: as §1
In series [5] the test system is Gram-positive bacteria. The settings on record: in words; J. Antibiotics 1974, 1976; cited from earlier work.
Series [6] concerns ruminants. The settings on record: in words; U.S. Pat. No. 3,794,732; cited from earlier work.
The mark [7] stands for this setting: Table 3, 1.25 μg/ml, 0 μg/ml: 28.5.
The mark [8] stands for this setting: Table 3, 5 μg/ml, 0 μg/ml: 28.5.
Where [9] appears, read: Table 3, 20 μg/ml, 0 μg/ml: 28.5.
The mark [10] stands for this setting: Table 3, .31 μg/ml, 0 μg/ml: 28.5.
The mark [11] stands for this setting: in words, compared with laidlomycin or its sodium salt.
The mark [12] stands for this setting: Bos taurus, 6 h, read-out: Accumulation of Lactic Acid - % of Control, Table 4, 6 h, 39° C.
Where [13] appears, read: Bos taurus, 6 h, read-out: Lactic Acid Accumulation (% of Control), Table 2, 6 h, 39° C.

Like-named read-outs stand apart in the source and are kept apart here.

Consider `CCCC(=O)OCC1(O)OC(C2CC(C)C(C3(C)CCC(C4(C)CCC5(CC(O)C(C)C(C(C)C(OC(=O)CC)C(C)C(=O)O)O5)O4)O3)O2)C(C)CC1C` (centres unmarked) [L. C4, monobutyrate of laidlomycin], for which the “% Propionic Acid” value is 46.1% in series [1] (Table 1, 1.25 μg/ml, 0 μg/ml: 35.4); 52.2% in series [1] (Table 1, 2.5 μg/ml, 0 μg/ml: 35.4); 49.3% in series [1] (Table 1, 5 μg/ml, 0 μg/ml: 35.4); 53.9% in series [1] (Table 1, 10 μg/ml, 0 μg/ml: 35.4); 43.6% in series [1] (Table 1, .31 μg/ml, 0 μg/ml: 35.4); 46.4% in series [1] (Table 1, .62 μg/ml, 0 μg/ml: 35.4). The “% Propionic Acid” value was found to be 39.9% in series [1] (setting [7]), 43.7% in series [1] (setting [8]), 46.9% in series [1] (setting [9]) and 35.5% in series [1] (setting [10]). Moreover, the “enhancement of propionic acid production (molar percentage of propionate)” value in series [1] (setting [11]) is “surprisingly increased potency”. Also, the activity at 1.25 µg/mL in series [2] (setting [12]) was found to be 13%; in series [2] (setting [13]), 8%. For the same compound, the activity at 5 µg/mL in series [2] (Bos taurus, 6 h, read-out: Accumulation of Lactic Acid - % of Control, Table 4, 5 μg/ml, 6 h, 39° C.) was determined as 15%; in series [2] (Bos taurus, 6 h, read-out: Lactic Acid Accumulation (% of Control), Table 2, 5 μg/ml, 6 h, 39° C.), 13%. Further, in series [2] (Bos taurus, 6 h, read-out: Accumulation of Lactic Acid - % of Control, Table 4, 20 μg/ml, 6 h, 39° C.), the activity at 20 µg/mL was determined as 19%. In addition, the activity at 0.31 µg/mL was 38% in series [2] (setting [12]) and 71% in series [2] (setting [13]). Moreover, in series [2] (Bos taurus, 6 h, read-out: Lactic Acid Accumulation (% of Control), Table 2, 2.5 μg/ml, 6 h, 39° C.), the activity at 2.5 µg/mL worked out at 11%. In series [2] (Bos taurus, 6 h, read-out: Lactic Acid Accumulation (% of Control), Table 2, 10 μg/ml, 6 h, 39° C.), the activity at 10 µg/mL was 13%. In addition, the activity at 0.62 µg/mL in series [2] (Bos taurus, 6 h, read-out: Lactic Acid Accumulation (% of Control), Table 2, .62 μg/ml, 6 h, 39° C.) came out at 30%. The “inhibition of lactic acid production/accumulation” value in series [2] (setting [11]) is “surprisingly increased potency”. The 50% lethal dose (LD50) at 504 h in series [3] is over 200 mg/kg. Moreover, the “No. Deaths/No. Mice” value in series [4] (12.5 mg/kg), in series [4] (25 mg/kg), in series [4] (50 mg/kg), in series [4] (100 mg/kg) and in series [4] (200 mg/kg) was 0/6 throughout.
For the compound `CCC(=O)OC(C(C)C(=O)O)C(C)C1OC2(CCC(C)(C3CCC(C)(C4OC(C5OC(O)(CO)C(C)CC5C)CC4C)O3)O2)CC(O)C1C` (centres unmarked) [L., laidlomycin], the “% Propionic Acid” value is given as 36.0% in series [1] (setting [7]), 39.8% in series [1] (setting [8]), 43.2% in series [1] (setting [9]) and 32.1% in series [1] (setting [10]). In addition, the activity at 1.25 µg/mL in series [2] (setting [12]) turned out to be 83%. For the same compound, in series [2] (setting [12]), the activity at 0.31 µg/mL came out at 121%. Also, the “Accumulation of Lactic Acid - % of Control” value in series [2] (5 μg/ml, 6 h, 39° C.) is recorded as 20 % of Control; in series [2] (20 μg/ml, 6 h, 39° C.), 16 % of Control. Besides, the “growth inhibition of Gram-positive bacteria” value in series [5] was “inhibits the growth of some Gram-positive bacteria”.
Regarding monensin, the “increasing feed utilization in ruminants” value in series [6] was “useful in increasing feed utilization in ruminants”.

The values are drawn from patent US4431665A, “Acylated laidlomycin derivatives” (priority 1980, dated 1984).
